Measured values as given in PubChem BioAssay (NCI).
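Compound exposure: 48 hours, 5 concentrations, 96-well plates. Definition used: TGI = concentration required for complete inhibition of growth.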

Columns and labels:
Test in all cases: inhibition of tumour cell growth, NCI panel, 48 h
786-0 renal = test system: 786-0 renal
A498 renal = test system: A498 renal
A549 NSCLC = test system: A549 NSCLC
ACHN renal = test system: ACHN renal
BT-549 breast = test system: BT-549 breast
CAKI-1 renal = test system: CAKI-1 renal
CCRF-CEM leukemia = test system: CCRF-CEM leukemia
COLO 205 colon = test system: COLO 205 colon
DU-145 prostate = test system: DU-145 prostate
EKVX NSCLC = test system: EKVX NSCLC
HCC-2998 colon = test system: HCC-2998 colon
HCT-116 colon = test system: HCT-116 colon
HCT-15 colon = test system: HCT-15 colon
HL-60(TB) leukemia = test system: HL-60(TB) leukemia
HOP-62 NSCLC = test system: HOP-62 NSCLC
HOP-92 NSCLC = test system: HOP-92 NSCLC
HS 578T breast = test system: HS 578T breast
HT29 colon = test system: HT29 colon
IGROV1 ovarian = test system: IGROV1 ovarian
K-562 leukemia = test system: K-562 leukemia
KM12 colon = test system: KM12 colon
LOX IMVI melanoma = test system: LOX IMVI melanoma
M14 melanoma = test system: M14 melanoma
MALME-3M melanoma = test system: MALME-3M melanoma
MCF7 breast = test system: MCF7 breast
MDA-MB-435 = test system: MDA-MB-435
MDA-N = test system: MDA-N
MOLT-4 leukemia = test system: MOLT-4 leukemia
NCI-H226 lung = test system: NCI-H226 lung
NCI-H23 lung = test system: NCI-H23 lung
NCI-H460 lung = test system: NCI-H460 lung
NCI-H522 lung = test system: NCI-H522 lung
NCI/ADR-RES ovarian = test system: NCI/ADR-RES ovarian
OVCAR-3 ovarian = test system: OVCAR-3 ovarian
OVCAR-4 ovarian = test system: OVCAR-4 ovarian
OVCAR-5 ovarian = test system: OVCAR-5 ovarian
OVCAR-8 ovarian = test system: OVCAR-8 ovarian
PC-3 prostate = test system: PC-3 prostate
RPMI-8226 leukemia = test system: RPMI-8226 leukemia
RXF 393 renal = test system: RXF 393 renal
SF-268 CNS = test system: SF-268 CNS
SF-295 CNS = test system: SF-295 CNS
SF-539 CNS = test system: SF-539 CNS
SK-MEL-2 melanoma = test system: SK-MEL-2 melanoma
SK-MEL-28 melanoma = test system: SK-MEL-28 melanoma
SK-MEL-5 melanoma = test system: SK-MEL-5 melanoma
SK-OV-3 ovarian = test system: SK-OV-3 ovarian
SN12C renal = test system: SN12C renal
SNB-19 CNS = test system: SNB-19 CNS
SNB-75 CNS = test system: SNB-75 CNS
SR leukemia = test system: SR leukemia
SW-620 colon = test system: SW-620 colon
T-47D breast = test system: T-47D breast
UACC-257 melanoma = test system: UACC-257 melanoma
UACC-62 melanoma = test system: UACC-62 melanoma
UO-31 renal = test system: UO-31 renal
TK-10 renal = test system: TK-10 renal
U251 CNS = test system: U251 CNS

How did the TGI (786-0 renal) turn out when `CCOc1cc(NC(C)=O)ccc1C(=O)NNS(=O)(=O)c1ccc(NC(C)=O)cc1` was run?
Its TGI is over 100 µM.

And the TGI (A498 renal)?
Its TGI is over 100 µM.

And the TGI (A549 NSCLC)?
Its TGI is over 100 µM.

What about the TGI (ACHN renal) of the same compound?
The TGI was over 100 µM.

What about the TGI (BT-549 breast) of the same compound?
Its TGI is over 100 µM.

And the TGI (CAKI-1 renal)?
Its TGI is over 100 µM.

And the TGI (CCRF-CEM leukemia)?
Its TGI is over 100 µM.

And the TGI (COLO 205 colon)?
Its TGI is 76.2 µM.

What about the TGI (DU-145 prostate) of the same compound?
Its TGI is over 100 µM.

And the TGI (EKVX NSCLC)?
Its TGI is over 100 µM.

And the TGI (HCC-2998 colon)?
The TGI was over 100 µM.

And the TGI (HCT-116 colon)?
The TGI was over 100 µM.

What about the TGI (HCT-15 colon) of the same compound?
Its TGI is over 100 µM.

And the TGI (HL-60(TB) leukemia)?
The TGI was 78.8 µM.

And the TGI (HOP-62 NSCLC)?
Its TGI is over 100 µM.

And the TGI (HOP-92 NSCLC)?
The TGI was over 100 µM.

What about the TGI (HS 578T breast) of the same compound?
The TGI was over 100 µM.

What about the TGI (HT29 colon) of the same compound?
Its TGI is over 100 µM.

What about the TGI (IGROV1 ovarian) of the same compound?
Its TGI is over 100 µM.

And the TGI (K-562 leukemia)?
Its TGI is over 100 µM.

What about the TGI (KM12 colon) of the same compound?
Its TGI is over 100 µM.

And the TGI (LOX IMVI melanoma)?
The TGI was over 100 µM.

What about the TGI (M14 melanoma) of the same compound?
The TGI was over 100 µM.

And the TGI (MALME-3M melanoma)?
The TGI was over 100 µM.

And the TGI (MCF7 breast)?
The TGI was over 100 µM.

And the TGI (MDA-MB-435)?
Its TGI is over 100 µM.

What about the TGI (MDA-N) of the same compound?
Its TGI is 39.2 µM.

And the TGI (MOLT-4 leukemia)?
Its TGI is over 100 µM.

And the TGI (NCI-H226 lung)?
Its TGI is 89.5 µM.

And the TGI (NCI-H23 lung)?
The TGI was over 100 µM.

And the TGI (NCI-H460 lung)?
The TGI was over 100 µM.

And the TGI (NCI-H522 lung)?
Its TGI is over 100 µM.

And the TGI (NCI/ADR-RES ovarian)?
The TGI was over 100 µM.

And the TGI (OVCAR-3 ovarian)?
The TGI was over 100 µM.

What about the TGI (OVCAR-4 ovarian) of the same compound?
The TGI was over 100 µM.

And the TGI (OVCAR-5 ovarian)?
The TGI was over 100 µM.

And the TGI (OVCAR-8 ovarian)?
Its TGI is over 100 µM.

What about the TGI (PC-3 prostate) of the same compound?
Its TGI is over 100 µM.

What about the TGI (RPMI-8226 leukemia) of the same compound?
The TGI was 86.4 µM.

And the TGI (RXF 393 renal)?
Its TGI is over 100 µM.

What about the TGI (SF-268 CNS) of the same compound?
The TGI was over 100 µM.

And the TGI (SF-295 CNS)?
Its TGI is over 100 µM.

What about the TGI (SF-539 CNS) of the same compound?
The TGI was over 100 µM.

And the TGI (SK-MEL-2 melanoma)?
Its TGI is 95.2 µM.

And the TGI (SK-MEL-28 melanoma)?
Its TGI is over 100 µM.

What about the TGI (SK-MEL-5 melanoma) of the same compound?
The TGI was 69.3 µM.

And the TGI (SK-OV-3 ovarian)?
The TGI was over 100 µM.

And the TGI (SN12C renal)?
The TGI was over 100 µM.

And the TGI (SNB-19 CNS)?
Its TGI is over 100 µM.

And the TGI (SNB-75 CNS)?
Its TGI is over 100 µM.

And the TGI (SR leukemia)?
Its TGI is over 100 µM.

And the TGI (SW-620 colon)?
The TGI was over 100 µM.

What about the TGI (T-47D breast) of the same compound?
Its TGI is over 100 µM.

And the TGI (UACC-257 melanoma)?
The TGI was over 100 µM.

What about the TGI (UACC-62 melanoma) of the same compound?
The TGI was over 100 µM.

What about the TGI (UO-31 renal) of the same compound?
Its TGI is over 100 µM.

Which TGI (786-0 renal) does the source give for `CCOC(=O)CCC1(CCC(=O)OCC)CCCCCCCCC(CCC(=O)OCC)(CCC(=O)OCC)C(=O)C1=O` here?
The TGI was over 100 µM.

And the TGI (A498 renal)?
The TGI was over 100 µM.

What about the TGI (A549 NSCLC) of the same compound?
Its TGI is over 100 µM.

What about the TGI (ACHN renal) of the same compound?
Its TGI is over 100 µM.

What about the TGI (CAKI-1 renal) of the same compound?
Its TGI is over 100 µM.

What about the TGI (COLO 205 colon) of the same compound?
The TGI was over 100 µM.

What about the TGI (DU-145 prostate) of the same compound?
Its TGI is over 100 µM.

What about the TGI (EKVX NSCLC) of the same compound?
The TGI was over 100 µM.

And the TGI (HCC-2998 colon)?
Its TGI is over 100 µM.

What about the TGI (HCT-116 colon) of the same compound?
The TGI was over 100 µM.

What about the TGI (HCT-15 colon) of the same compound?
The TGI was over 100 µM.

And the TGI (HOP-62 NSCLC)?
The TGI was over 100 µM.

What about the TGI (HOP-92 NSCLC) of the same compound?
The TGI was over 100 µM.

What about the TGI (HS 578T breast) of the same compound?
The TGI was over 100 µM.

What about the TGI (HT29 colon) of the same compound?
Its TGI is over 100 µM.

And the TGI (IGROV1 ovarian)?
Its TGI is over 100 µM.

And the TGI (K-562 leukemia)?
The TGI was over 100 µM.

What about the TGI (KM12 colon) of the same compound?
Its TGI is over 100 µM.

What about the TGI (LOX IMVI melanoma) of the same compound?
Its TGI is over 100 µM.

And the TGI (M14 melanoma)?
The TGI was over 100 µM.

And the TGI (MALME-3M melanoma)?
Its TGI is over 100 µM.

And the TGI (MCF7 breast)?
The TGI was over 100 µM.

And the TGI (MDA-MB-435)?
Its TGI is over 100 µM.

What about the TGI (MDA-N) of the same compound?
The TGI was over 100 µM.

And the TGI (NCI-H226 lung)?
The TGI was over 100 µM.

And the TGI (NCI-H23 lung)?
The TGI was over 100 µM.

What about the TGI (NCI-H460 lung) of the same compound?
The TGI was over 100 µM.

What about the TGI (NCI-H522 lung) of the same compound?
The TGI was over 100 µM.

And the TGI (NCI/ADR-RES ovarian)?
Its TGI is over 100 µM.

And the TGI (OVCAR-3 ovarian)?
Its TGI is over 100 µM.

What about the TGI (OVCAR-4 ovarian) of the same compound?
Its TGI is over 100 µM.

And the TGI (OVCAR-5 ovarian)?
Its TGI is over 100 µM.

And the TGI (OVCAR-8 ovarian)?
Its TGI is over 100 µM.

What about the TGI (PC-3 prostate) of the same compound?
The TGI was over 100 µM.

What about the TGI (SF-268 CNS) of the same compound?
Its TGI is over 100 µM.

And the TGI (SF-295 CNS)?
The TGI was over 100 µM.

And the TGI (SF-539 CNS)?
The TGI was over 100 µM.

And the TGI (SK-MEL-2 melanoma)?
Its TGI is over 100 µM.

And the TGI (SK-MEL-28 melanoma)?
Its TGI is over 100 µM.

And the TGI (SK-MEL-5 melanoma)?
Its TGI is over 100 µM.

What about the TGI (SK-OV-3 ovarian) of the same compound?
The TGI was over 100 µM.

And the TGI (SN12C renal)?
The TGI was over 100 µM.

What about the TGI (SNB-19 CNS) of the same compound?
Its TGI is over 100 µM.

And the TGI (SNB-75 CNS)?
The TGI was over 100 µM.

And the TGI (SR leukemia)?
Its TGI is over 100 µM.

And the TGI (SW-620 colon)?
Its TGI is over 100 µM.

What about the TGI (T-47D breast) of the same compound?
Its TGI is over 100 µM.

What about the TGI (TK-10 renal) of the same compound?
The TGI was over 100 µM.

What about the TGI (U251 CNS) of the same compound?
Its TGI is over 100 µM.

What about the TGI (UACC-257 melanoma) of the same compound?
Its TGI is over 100 µM.

And the TGI (UACC-62 melanoma)?
The TGI was over 100 µM.
